Data reported in ChEMBL document CHEMBL3994669, “Curcumin May (Not) Defy Science” (2017).

Key:
Type in all cases: functional
Homo sapiens [1] = test: Antirheumatoid arthritic activity in patient assessed as disease activity score at 50 mg, po bid for 8 weeks (reference value: 6.72 +/- 0.87)
Homo sapiens [2] = test: Antirheumatoid arthritic activity in patient assessed as visual analogue scale at 50 mg, po bid for 8 weeks (reference value: 78.25 +/- 11.25)
Homo sapiens [3] = test: Anti-inflammatory activity in COPD patient assessed as change in SAA-LDL level at 90 mg, po bid for 24 weeks (10.8%)
Homo sapiens [4] = test: Antirheumatoid arthritic activity in patient assessed as visual analogue scale at 500 mg, po bid for 8 weeks in presence of diclofenac sodium (reference value: 77.25 +/- 9.65)
Homo sapiens [5] = test: Anti-inflammatory activity in COPD patient assessed as change in forced expiratory volume in 1 second at 90 mg, po bid for 24 weeks (-3.6%)
Homo sapiens [6] = test: Anti-inflammatory activity in COPD patient assessed as change in uric acid level at 90 mg, po bid for 24 weeks (2.3%)
Homo sapiens [7] = test: Anti-inflammatory activity in COPD patient assessed as change in creatinine level at 90 mg, po bid for 24 weeks (1.4%)
Homo sapiens [8] = test: Anti-inflammatory activity in COPD patient assessed as change in HDL-C level at 90 mg, po bid for 24 weeks (2%)
Homo sapiens [9] = test: Anti-inflammatory activity in COPD patient assessed as change in DBP at 90 mg, po bid for 24 weeks (reference value: 2.9%)
Homo sapiens [10] = test: Anti-inflammatory activity in COPD patient assessed as change in AT-LDL level at 90 mg, po bid for 24 weeks (14.8%)
Homo sapiens [11] = test: Anti-inflammatory activity in COPD patient assessed as change in gammaGTP level at 90 mg, po bid for 24 weeks (-1.2%)
Homo sapiens [12] = test: Antirheumatoid arthritic activity in patient assessed as disease activity score at 500 mg, po bid for 8 weeks in presence of diclofenac sodium (reference value: 6.44 +/- 0.51)
Homo sapiens [13] = test: Anti-inflammatory activity in COPD patient assessed as change in triglyceride level at 90 mg, po bid for 24 weeks (14.5%)
Homo sapiens [14] = test: Antirheumatoid arthritic activity in patient assessed as visual analogue scale at 500 mg, po bid for 8 weeks (reference value: 68.57 +/- 17.14)
Homo sapiens [15] = test: Anti-inflammatory activity in COPD patient assessed as change in BMI at 90 mg, po bid for 24 weeks (reference value: -0.7%)
Homo sapiens [16] = test: Anti-inflammatory activity in COPD patient assessed as change in C-reactive protein level at 90 mg, po bid for 24 weeks (11.1%)
Homo sapiens [17] = test: Anti-inflammatory activity in COPD patient assessed as change in LDL-C level at 90 mg, po bid for 24 weeks (11.4%)
Homo sapiens [18] = test: Anti-inflammatory activity in COPD patient assessed as change in SBP at 90 mg, po bid for 24 weeks (reference value: 1.4%)
Homo sapiens [19] = test: Anti-inflammatory activity in COPD patient assessed as change in blood sugar level at 90 mg, po bid for 24 weeks (14.5%)
Homo sapiens [20] = test: Anti-inflammatory activity in COPD patient assessed as change in HbA1c level at 90 mg, po bid for 24 weeks relative to placebo treated control
Homo sapiens [21] = test: Antirheumatoid arthritic activity in patient assessed as disease activity score at 500 mg, po bid for 8 weeks (reference value: 6.4 +/- 0.73)

**Q.** How did the Activity (Homo sapiens [1]) turn out when `O=C([O-])Cc1ccccc1Nc1c(Cl)cccc1Cl.[Na+]` [DICLOFENAC SODIUM] was run?
**A.** Its Activity is 3.89.

**Q.** And the Activity (Homo sapiens [2])?
**A.** Its Activity is 39.17.

**Q.** For `COc1cc(/C=C/C(=O)CC(=O)/C=C/c2ccc(O)c(OC)c2)ccc1O` [CURCUMIN], which Activity (Homo sapiens [3]) is on record?
**A.** The Activity was -2%.

**Q.** And the Activity (Homo sapiens [4])?
**A.** Its Activity is 34.29.

**Q.** What about the Activity (Homo sapiens [5]) of the same molecule?
**A.** The Activity was -1.9%.

**Q.** What about the Activity (Homo sapiens [6]) of the same molecule?
**A.** Its Activity is 2.4%.

**Q.** What about the Activity (Homo sapiens [7]) of the same molecule?
**A.** The Activity was 2.9%.

**Q.** What about the Activity (Homo sapiens [8]) of the same molecule?
**A.** The Activity was -2.8%.

**Q.** What about the Activity (Homo sapiens [9]) of the same molecule?
**A.** Its Activity is 3.5%.

**Q.** What about the Activity (Homo sapiens [10]) of the same molecule?
**A.** Its Activity is -1.6%.

**Q.** What about the Activity (Homo sapiens [11]) of the same molecule?
**A.** The Activity was -5.7%.

**Q.** What about the Activity (Homo sapiens [12]) of the same molecule?
**A.** Its Activity is 3.58.

**Q.** And the Activity (Homo sapiens [13])?
**A.** The Activity was 9.2%.

**Q.** What about the Activity (Homo sapiens [14]) of the same molecule?
**A.** Its Activity is 27.5.

**Q.** What about the Activity (Homo sapiens [15]) of the same molecule?
**A.** The Activity was 0.9%.

**Q.** And the Activity (Homo sapiens [16])?
**A.** Its Activity is -12.5%.

**Q.** And the Activity (Homo sapiens [17])?
**A.** The Activity was 4.6%.

**Q.** What about the Activity (Homo sapiens [18]) of the same molecule?
**A.** The Activity was -1.3%.

**Q.** What about the Activity (Homo sapiens [19]) of the same molecule?
**A.** Its Activity is 5.8%.

**Q.** And the Activity (Homo sapiens [20])?
**A.** Its Activity is 0.4%.

**Q.** And the Activity (Homo sapiens [21])?
**A.** The Activity was 3.55.
